# Measurements reported in patent publication US20240358692A1, “TREATMENT OF SCLERODERMA” (Aisa Pharma, Inc., priority 2023, published 2024).
# System: participants with SSc-RP
# Experiment: Average severity of weekly RP attacks (VAS 0-10)
# Assay type: in vivo, human
# Conditions: Tadalafil 5 mg; for Average Severity of Weekly Symptomatic RP Attacks, Change from Baseline, Mean / Average Severity of Weekly Symptomatic RP Attacks, Change from Baseline, Median / Average Severity of Weekly Symptomatic RP Attacks, Percent Change from Baseline, Mean / Average Severity of Weekly Symptomatic RP Attacks, Percent Change from Baseline, Median: 2nd Baseline RCS subgroup, ITT Part A, last 7 days of dosing period
# From the text: The absolute change in average severity of weekly RP attacks (VAS 0-10 cm scale) from baseline to the end of each Dosing Period was and will be a secondary outcome variable. The sponsor-developed participant-informed diary will be used to record data. Average severity of weekly RP attacks is defined as the total severity scores of RP attacks divided by total number of RP attacks within the last 7 days of each dosing period. Total severity scores of RP attacks during the last 7 days of screening period divided by the total number of RP attacks will be used as baseline for the analysis of all periods. The variable will be calculated similar to frequency data as before.
# [1] = all attacks, by Baseline RCS: second subgroup of Table C-7, ITT Part A
structure (smiles),measurement,setting,value
CN1CC(=O)N2[C@H](c3ccc4c(c3)OCO4)c3[nH]c4ccccc4c3C[C@@H]2C1=O [Tadalafil],"Average Severity of Weekly Symptomatic RP Attacks, Change from Baseline, Mean",,−0.60
same,"Average Severity of Weekly Symptomatic RP Attacks, Change from Baseline, Median",,−0.60
same,"Average Severity of Weekly Symptomatic RP Attacks, Percent Change from Baseline, Mean",,−10.43%
same,"Average Severity of Weekly Symptomatic RP Attacks, Percent Change from Baseline, Median",,−10.43%
same,"Average Severity of Weekly Symptomatic RP Attacks, Change from Baseline, Mean",Excluding Outliers,−1.32
same,"Average Severity of Weekly Symptomatic RP Attacks, Change from Baseline, Median",Excluding Outliers,−1.32
same,"Average Severity of Weekly Symptomatic RP Attacks, Percent Change from Baseline, Mean",Excluding Outliers,−22.01%
same,"Average Severity of Weekly Symptomatic RP Attacks, Percent Change from Baseline, Median",Excluding Outliers,−22.01%
same,"Average Severity (0-10) of weekly RP attacks, Mean",[1],7.02
same,"Average Severity (0-10) of weekly RP attacks, Median",[1],7.02
same,"Average severity of weekly RP attacks, Change from Baseline, Mean",[1],−0.47
same,"Average severity of weekly RP attacks, Change from Baseline, Median",[1],−0.47
same,"Average severity of weekly RP attacks, Percent Change from Baseline, Mean",[1],−8.97%
same,"Average severity of weekly RP attacks, Percent Change from Baseline, Median",[1],−8.97%
